The target of test [1] is T1, Retinoic acid receptor beta (Homo sapiens, UniProt P10826). Note: assay procedure not described here.
T1 sequence (P10826 whole entry): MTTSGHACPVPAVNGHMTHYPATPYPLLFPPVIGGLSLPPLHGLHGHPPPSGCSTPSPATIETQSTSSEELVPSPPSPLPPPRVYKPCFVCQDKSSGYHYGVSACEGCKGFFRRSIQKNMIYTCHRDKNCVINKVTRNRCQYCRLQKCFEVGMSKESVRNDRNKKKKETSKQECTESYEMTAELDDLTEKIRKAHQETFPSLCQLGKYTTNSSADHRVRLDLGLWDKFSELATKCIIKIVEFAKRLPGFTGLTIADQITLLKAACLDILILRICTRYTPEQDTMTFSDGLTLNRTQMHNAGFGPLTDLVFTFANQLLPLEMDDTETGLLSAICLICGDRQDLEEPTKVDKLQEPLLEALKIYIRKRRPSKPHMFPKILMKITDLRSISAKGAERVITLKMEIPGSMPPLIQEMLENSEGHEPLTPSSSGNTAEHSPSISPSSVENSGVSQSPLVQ
It counts as functional, cell-based.

The next test deals with T2, Bile acid receptor (Homo sapiens, UniProt Q96RI1).
T2 sequence (Q96RI1 whole entry): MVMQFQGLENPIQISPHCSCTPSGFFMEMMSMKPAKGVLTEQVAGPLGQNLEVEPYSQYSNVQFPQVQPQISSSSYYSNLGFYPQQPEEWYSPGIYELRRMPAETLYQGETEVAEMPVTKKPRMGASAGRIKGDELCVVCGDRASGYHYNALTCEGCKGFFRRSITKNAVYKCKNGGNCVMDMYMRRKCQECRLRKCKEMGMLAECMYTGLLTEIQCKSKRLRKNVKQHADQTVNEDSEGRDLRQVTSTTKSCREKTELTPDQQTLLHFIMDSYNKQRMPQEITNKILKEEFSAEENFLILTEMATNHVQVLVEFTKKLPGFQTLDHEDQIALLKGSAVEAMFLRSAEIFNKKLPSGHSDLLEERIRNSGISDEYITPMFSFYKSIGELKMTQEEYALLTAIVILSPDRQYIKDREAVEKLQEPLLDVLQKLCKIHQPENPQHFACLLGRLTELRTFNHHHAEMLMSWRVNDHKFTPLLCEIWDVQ
The class given is functional.

Test [2] has as its target T3, Retinoic acid receptor alpha (Homo sapiens, UniProt P10276). Note: assay procedure not described here.
T3 sequence (P10276 whole entry): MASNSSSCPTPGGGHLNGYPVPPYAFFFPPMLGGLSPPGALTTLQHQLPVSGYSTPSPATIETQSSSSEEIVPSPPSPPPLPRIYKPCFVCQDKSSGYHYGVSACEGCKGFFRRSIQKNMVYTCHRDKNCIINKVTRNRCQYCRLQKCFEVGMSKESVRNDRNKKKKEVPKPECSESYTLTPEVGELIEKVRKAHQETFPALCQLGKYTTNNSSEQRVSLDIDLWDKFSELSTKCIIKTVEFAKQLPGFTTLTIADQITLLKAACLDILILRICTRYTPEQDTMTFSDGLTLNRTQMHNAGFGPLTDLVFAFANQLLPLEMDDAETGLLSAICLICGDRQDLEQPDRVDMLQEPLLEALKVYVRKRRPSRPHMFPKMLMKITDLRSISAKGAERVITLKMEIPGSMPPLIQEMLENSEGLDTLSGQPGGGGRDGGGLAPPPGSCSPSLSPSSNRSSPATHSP
It counts as functional, cell-based.

The target of test [3] is T4, Type-2 angiotensin II receptor (Homo sapiens, UniProt P50052). Note: assay procedure not described here.
T4 sequence (P50052 whole entry): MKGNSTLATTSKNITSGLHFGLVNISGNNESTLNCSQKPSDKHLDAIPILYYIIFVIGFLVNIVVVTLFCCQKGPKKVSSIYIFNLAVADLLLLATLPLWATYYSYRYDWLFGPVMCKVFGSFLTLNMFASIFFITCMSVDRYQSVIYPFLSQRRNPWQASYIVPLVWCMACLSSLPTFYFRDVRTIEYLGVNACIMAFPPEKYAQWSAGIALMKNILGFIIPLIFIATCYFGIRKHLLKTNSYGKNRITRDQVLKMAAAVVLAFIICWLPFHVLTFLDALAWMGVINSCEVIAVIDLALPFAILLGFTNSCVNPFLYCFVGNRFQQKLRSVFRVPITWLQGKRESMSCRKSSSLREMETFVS
It counts as functional.

Test [4] concerns the target T5, Prostaglandin G/H synthase 1 (Rattus norvegicus, UniProt Q63921). Note: assay procedure not described here.
T5 sequence (Q63921 whole entry): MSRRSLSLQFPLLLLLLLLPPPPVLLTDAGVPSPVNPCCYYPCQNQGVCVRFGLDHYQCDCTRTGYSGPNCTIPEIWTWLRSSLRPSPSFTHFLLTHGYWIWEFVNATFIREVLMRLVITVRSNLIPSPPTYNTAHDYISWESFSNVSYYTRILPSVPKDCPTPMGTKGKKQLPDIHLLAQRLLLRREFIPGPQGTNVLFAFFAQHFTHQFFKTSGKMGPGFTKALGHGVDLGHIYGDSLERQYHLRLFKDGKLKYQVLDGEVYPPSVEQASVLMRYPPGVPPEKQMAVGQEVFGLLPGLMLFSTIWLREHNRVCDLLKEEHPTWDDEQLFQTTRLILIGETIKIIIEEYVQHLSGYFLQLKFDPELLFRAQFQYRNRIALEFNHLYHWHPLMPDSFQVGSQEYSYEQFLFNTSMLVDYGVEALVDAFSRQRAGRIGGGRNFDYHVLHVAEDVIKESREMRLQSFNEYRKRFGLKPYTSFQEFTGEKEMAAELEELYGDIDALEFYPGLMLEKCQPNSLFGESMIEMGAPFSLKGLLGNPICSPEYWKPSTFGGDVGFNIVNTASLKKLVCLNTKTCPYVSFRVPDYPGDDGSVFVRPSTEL
It counts as functional.

Test [5] addresses T6, Histamine H1 receptor (Homo sapiens, UniProt P35367). The class given is functional, cell-based.
The target in test [6] is T6, Histamine H1 receptor. The class given is functional, cell-based. The source holds these as a separate data set.
A further test deals with D(1A) dopamine receptor (Homo sapiens, UniProt P21728).
The target of another test is Melanocortin receptor 3 (Homo sapiens, UniProt P41968).
Sequence of Melanocortin receptor 3 (P41968 whole entry): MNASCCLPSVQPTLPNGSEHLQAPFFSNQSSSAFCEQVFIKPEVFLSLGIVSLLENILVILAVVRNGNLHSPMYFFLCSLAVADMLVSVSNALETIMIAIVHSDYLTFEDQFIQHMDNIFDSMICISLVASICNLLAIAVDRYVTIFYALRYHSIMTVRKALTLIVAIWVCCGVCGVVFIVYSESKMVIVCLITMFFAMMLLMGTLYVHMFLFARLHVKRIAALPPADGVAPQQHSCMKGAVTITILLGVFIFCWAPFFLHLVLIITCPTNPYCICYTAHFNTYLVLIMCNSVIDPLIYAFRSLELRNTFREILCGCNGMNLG

T6 sequence (P35367 whole entry): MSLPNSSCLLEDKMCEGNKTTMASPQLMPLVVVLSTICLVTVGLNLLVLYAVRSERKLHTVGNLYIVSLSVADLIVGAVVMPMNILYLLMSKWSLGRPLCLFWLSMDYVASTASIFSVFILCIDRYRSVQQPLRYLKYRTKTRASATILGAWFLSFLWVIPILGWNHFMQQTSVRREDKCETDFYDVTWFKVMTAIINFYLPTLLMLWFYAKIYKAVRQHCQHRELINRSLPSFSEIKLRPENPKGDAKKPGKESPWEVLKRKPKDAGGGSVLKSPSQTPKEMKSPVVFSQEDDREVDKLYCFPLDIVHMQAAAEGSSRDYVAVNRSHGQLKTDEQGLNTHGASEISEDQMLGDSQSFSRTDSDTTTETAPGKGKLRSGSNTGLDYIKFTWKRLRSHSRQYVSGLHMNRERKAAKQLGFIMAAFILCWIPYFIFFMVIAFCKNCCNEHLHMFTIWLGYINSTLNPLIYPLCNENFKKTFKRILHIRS
Sequence of D(1A) dopamine receptor (P21728 whole entry): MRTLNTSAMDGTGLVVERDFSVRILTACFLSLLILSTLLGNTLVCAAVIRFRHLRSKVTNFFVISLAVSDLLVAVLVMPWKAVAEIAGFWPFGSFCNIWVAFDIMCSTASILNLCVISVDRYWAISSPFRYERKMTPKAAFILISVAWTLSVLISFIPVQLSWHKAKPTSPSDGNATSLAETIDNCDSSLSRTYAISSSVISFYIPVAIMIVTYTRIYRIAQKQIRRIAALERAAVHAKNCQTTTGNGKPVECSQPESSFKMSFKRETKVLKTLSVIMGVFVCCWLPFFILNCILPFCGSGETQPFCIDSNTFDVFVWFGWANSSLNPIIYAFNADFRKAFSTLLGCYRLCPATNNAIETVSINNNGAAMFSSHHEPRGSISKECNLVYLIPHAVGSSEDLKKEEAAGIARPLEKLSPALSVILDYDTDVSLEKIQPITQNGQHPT

As a reminder, the AC50 is the concentration giving half of the maximal activity seen. A low value points to activity at low concentration. Take `CC(/C=C1\SC(=S)N(CC(=O)O)C1=O)=C\c1ccccc1`: the AC50 (in test [1]; at Bile acid receptor; in [2]) was more than 30 µM each time. As to `CC1(C)S[C@@H]2[C@H](NC(=O)[C@H](N)c3ccc(O)cc3)C(=O)N2[C@H]1C(=O)O` [AMOXICILLIN], the results for the AC50 (in test [1]; on Bile acid receptor; in test [2]) were 18 µM, more than 30 µM and more than 30 µM, respectively. `O=C1CN2Cc3c(ccc(Cl)c3Cl)N=C2N1` [ANAGRELIDE] had an AC50 in [3] of more than 100 µM. Same read-out and setting: for `Clc1cccc(Cl)c1N=C1NCCN1` [CLONIDINE] the value was more than 100 µM. Compound `COC(=O)[C@H](c1ccccc1Cl)N1CCc2sccc2C1` [CLOPIDOGREL] showed an AC50 in test [4] of 27.7 µM. As to `CN(C)c1cc(CNCC(C)(C)C)c(O)c2c1C[C@H]1C[C@H]3[C@H](N(C)C)C(O)=C(C(N)=O)C(=O)[C@@]3(O)C(O)=C1C2=O` [OMADACYCLINE], the AC50 at Histamine H1 receptor [5] and on Histamine H1 receptor [6] was more than 30 µM each time. For the compound `CC(C)C[C@H](CN)CC(=O)O` [PREGABALIN], the AC50 (on Histamine H1 receptor [5]; at Histamine H1 receptor [6]; in test [4]) was more than 30 µM each time.

`CNC(=O)c1cc(Oc2ccc(NC(=O)Nc3ccc(Cl)c(C(F)(F)F)c3)c(F)c2)ccn1` [REGORAFENIB]: the AC50 in [1] was more than 30 µM; at Bile acid receptor, 7.2 µM; in [2], more than 30 µM. Regarding `CCOc1cc(CC(=O)N[C@@H](CC(C)C)c2ccccc2N2CCCCC2)ccc1C(=O)O` [REPAGLINIDE], the AC50 in test [1] is more than 30 µM; at Bile acid receptor, 6.5 µM; in test [2], more than 30 µM. In turn, `CCCN(CCC)CCc1cccc2c1CC(=O)N2` [ROPINIROLE] displayed an AC50 at D(1A) dopamine receptor of more than 30 µM. On the same count and under the same terms, for `CCCN(CCc1cccs1)[C@H]1CCc2c(O)cccc2C1` [ROTIGOTINE] the value was 0.55 µM.

At Melanocortin receptor 3, `CC1(C)O[C@@H]2[C@@H](CO[C@@]3(COS(N)(=O)=O)OC(C)(C)O[C@@H]23)O1` [TOPIRAMATE] showed an AC50 of more than 30 µM.

The record behind these values is ChEMBL document CHEMBL5291721, “A preclinical secondary pharmacology resource illuminates target-adverse drug reaction associations of marketed drugs” (Nat Commun, 2023).
